Converted amounts (≈) assume the structure as drawn.
Key:
[1] = Absorption edge of visible light photoinitiators; assay type: physicochemical
From the text: Table 5 provides information about the photoinitiators used in this example.

[2] = Solubility of photoinitiator in lens formulation; assay type: physicochemical
Procedure: Four lens formulations without HEVL-absorbing benzotriazole-containing vinylic monomers are prepared to have the following compositions shown in Table 6. TTMB-Sn is not soluble in the formulation at room temperature but is soluble at 40° C. So, the photo-rheology experiment is conducted at 40° C. for this photoinitiator instead of the typical 25° C. (for other three photoinitiators).

[3] = UV/visible absorption of dilute monomer solutions (absorption peak); assay type: physicochemical; settings: HEVL absorption peak; dilute solution in PrOH
[4] = Solubility of HEVL-absorbing vinylic monomers in 1-propanol; assay type: physicochemical
From the text: It is also reported that there are correlations between lower melting points and compound solubility (Bathori, N. B. Acta Cryst., 2014, A70, C990). Changing the R group from —Cl to —CF3 should both shift the absorbance due to a greater electron withdrawing capability, and increase the solubility by reducing the ability of the compound to crystalize due to the bulky —CF3 group. […] UV23 would seem to be a good candidate because the —CF3 group further red shifts the absorbance and the solubility is much improved.

[5] = empirical substituent parameter of R group on benzotriazole ring; cited from earlier work

SMILES	Abs. edge (nm) [1]	Absorption Peak (nm) [3]	Solubility in PrOH [4]	σpara [5]	also measured
C[CH2][Ge]([CH2]C)([C](=O)c1ccc(OC)cc1)[C](=O)c1ccc(OC)cc1 [BMBDE-Ge, Bis(4-methoxybenzoyl)diethylgermanium]	470 nm				
C[CH2][Ge]([CH2]C)([C](=O)c1ccccc1)[C](=O)c1ccccc1 [DBDE-Ge, dibenzoyldiethylgermanium]	480 nm				
CCc1ccccc1[C](=O)[Ge]([C](=O)c1ccccc1CC)([C](=O)c1ccccc1CC)[C](=O)c1ccccc1CC [TEB-Ge, tetrakis(2-ethylbenzoyl)-germanium]	490 nm				
Cc1cc(C)c([C](=O)[Sn]([C](=O)c2c(C)cc(C)cc2C)([C](=O)c2c(C)cc(C)cc2C)[C](=O)c2c(C)cc(C)cc2C)c(C)c1 [TTMB-Sn, tetrakis(2,4,6-trimethylbenzoyl)stannane]	510 nm				solubility in the formulation ([2]; 40° C.): soluble; solubility in the formulation ([2]; room temperature): not soluble
C=CC(=O)OCCCOc1cc(-n2nc3ccc(C(F)(F)F)cc3n2)c(O)c(C(C)(C)C)c1 [UV23, 2-[2′-Hydroxy-3′-tert-butyl-5′-(3′-acryloyloxypropoxy)phenyl]-5-trifluoromethyl-2H-benzotriazole]		418 nm	> 3300 µg/mL	0.54	
C=C(C)C(=O)OCCCOc1cc(-n2nc3ccc(Cl)cc3n2)c(O)c(C(C)(C)C)c1 [UV28, 2-{2′-Hydroxy-3′-tert-butyl-5′-[3′-methacryloyloxypropoxy]phenyl}-5-chloro-2H-benzotriazole]		416 nm	1500 µg/mL (≈ 3.38 mM)	0.23	
